Holding throughout (assay): cAMP accumulation
Holding throughout (type): cell-based
What all share (conditions): cAMP maximal response, mean ± S.E.M., SEM
(Cyclic AMP is a second messenger, typically raised through Gs and lowered through Gi signalling.)

Assay [1] has as its target T1, hCTR L297A (Homo sapiens, UniProt P30988, L297A).
T1 construct: c-Myc (N); expressed in transfected cells
T1 sequence (P30988 25-474 L297A): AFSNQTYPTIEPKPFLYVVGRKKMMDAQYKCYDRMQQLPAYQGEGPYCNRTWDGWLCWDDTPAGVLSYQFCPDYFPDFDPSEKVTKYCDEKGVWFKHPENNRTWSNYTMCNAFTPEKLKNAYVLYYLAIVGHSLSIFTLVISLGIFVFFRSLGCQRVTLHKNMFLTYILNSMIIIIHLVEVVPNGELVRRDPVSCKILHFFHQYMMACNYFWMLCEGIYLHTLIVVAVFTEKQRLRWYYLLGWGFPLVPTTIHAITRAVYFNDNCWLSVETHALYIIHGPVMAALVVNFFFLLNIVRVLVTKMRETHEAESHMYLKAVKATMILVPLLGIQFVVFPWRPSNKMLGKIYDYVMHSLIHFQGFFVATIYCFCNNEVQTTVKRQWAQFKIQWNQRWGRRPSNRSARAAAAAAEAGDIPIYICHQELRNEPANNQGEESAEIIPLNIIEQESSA
In a few lines:
(§1)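 Concentration-response curves, fitted to a 3-parameter logistic equation, gave EC50 and Emax; these reflect functional affinity, efficacy and stimulus-response coupling combined. Stimulation lasted 30 min with IBMX, and data were scaled to the 100 μM forskolin response.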

Assay [2] addresses T2, hCTR M367A (Homo sapiens, UniProt P30988, M367A).
T2 construct: c-Myc (N); expressed in transfected cells
T2 sequence (P30988 25-474 M367A): T1 sequence (P30988 25-474 L297A) with A273L, M343A
An outline of the steps:
as §1

In assay [3] the target is T3, hCTR M376A (Homo sapiens, UniProt P30988, M376A).
T3 construct: c-Myc (N); expressed in transfected cells
T3 sequence (P30988 25-474 M376A): T1 sequence (P30988 25-474 L297A) with A273L, M352A
An outline of the steps:
as §1

Assay [4] concerns the target T4, hCTR S364A (Homo sapiens, UniProt P30988, S364A).
T4 construct: c-Myc (N); expressed in transfected cells
T4 sequence (P30988 25-474 S364A): T1 sequence (P30988 25-474 L297A) with A273L, S340A
In a few lines:
as §1

Assay [5] addresses T5, hCTR V358A (Homo sapiens, UniProt P30988, V358A).
T5 construct: c-Myc (N); expressed in transfected cells
T5 sequence (P30988 25-474 V358A): T1 sequence (P30988 25-474 L297A) with A273L, V334A
An outline of the steps: as §1

Structures are written as SMILES. Changes are numbered by the printed parent chain.

Consider `CC(C)C[C@H](NC(=O)[C@H](CCCCN)NC(=O)CNC(=O)[C@H](CC(C)C)NC(=O)[C@@H](NC(=O)[C@@H]1CSSC[C@H](N)C(=O)N[C@@H](CO)C(=O)N[C@@H](CC(N)=O)C(=O)N[C@@H](CC(C)C)C(=O)N[C@@H](CO)C(=O)N[C@@H]([C@@H](C)O)C(=O)N1)C(C)C)C(=O)N[C@@H](CO)C(=O)N[C@@H](CCC(N)=O)C(=O)N[C@@H](CCC(=O)O)C(=O)N[C@@H](CC(C)C)C(=O)N[C@@H](Cc1c[nH]cn1)C(=O)N[C@@H](CCCCN)C(=O)N[C@@H](CC(C)C)C(=O)N[C@@H](CCC(N)=O)C(=O)N[C@H](C(=O)N[C@@H](Cc1ccc(O)cc1)C(=O)N1CCC[C@H]1C(=O)N[C@@H](CCCNC(=N)N)C(=O)N[C@H](C(=O)N[C@@H](CC(N)=O)C(=O)N[C@H](C(=O)NCC(=O)N[C@@H](CO)C(=O)NCC(=O)N[C@H](C(=O)N1CCC[C@H]1C(N)=O)[C@@H](C)O)[C@@H](C)O)[C@@H](C)O)[C@@H](C)O` [sCT], for which the maximum response (Emax) turned out to be 103 ± 12% in assay [1]; 79 ± 3% in assay [2]; 102 ± 6% in assay [3]; 102 ± 7% in assay [4]; 139 ± 9% in assay [5].

What is called Emax is the maximal effect, on the per cent scale that the assay sets.
